According to ChEMBL document CHEMBL1131923, “Synthesis and structure-activity relationships of a series of novel thiazoles as inhibitors of aminoacyl-tRNA synthetases” (Bioorg Med Chem Lett, 1999):

Legend:
[1] = molecular target: T1, Isoleucine--tRNA ligase, cytoplasmic (Homo sapiens, UniProt P41252); experiment: Compound tested for the inhibition of human isoleucyl-tRNA synthetase
T1 sequence (P41252 whole entry): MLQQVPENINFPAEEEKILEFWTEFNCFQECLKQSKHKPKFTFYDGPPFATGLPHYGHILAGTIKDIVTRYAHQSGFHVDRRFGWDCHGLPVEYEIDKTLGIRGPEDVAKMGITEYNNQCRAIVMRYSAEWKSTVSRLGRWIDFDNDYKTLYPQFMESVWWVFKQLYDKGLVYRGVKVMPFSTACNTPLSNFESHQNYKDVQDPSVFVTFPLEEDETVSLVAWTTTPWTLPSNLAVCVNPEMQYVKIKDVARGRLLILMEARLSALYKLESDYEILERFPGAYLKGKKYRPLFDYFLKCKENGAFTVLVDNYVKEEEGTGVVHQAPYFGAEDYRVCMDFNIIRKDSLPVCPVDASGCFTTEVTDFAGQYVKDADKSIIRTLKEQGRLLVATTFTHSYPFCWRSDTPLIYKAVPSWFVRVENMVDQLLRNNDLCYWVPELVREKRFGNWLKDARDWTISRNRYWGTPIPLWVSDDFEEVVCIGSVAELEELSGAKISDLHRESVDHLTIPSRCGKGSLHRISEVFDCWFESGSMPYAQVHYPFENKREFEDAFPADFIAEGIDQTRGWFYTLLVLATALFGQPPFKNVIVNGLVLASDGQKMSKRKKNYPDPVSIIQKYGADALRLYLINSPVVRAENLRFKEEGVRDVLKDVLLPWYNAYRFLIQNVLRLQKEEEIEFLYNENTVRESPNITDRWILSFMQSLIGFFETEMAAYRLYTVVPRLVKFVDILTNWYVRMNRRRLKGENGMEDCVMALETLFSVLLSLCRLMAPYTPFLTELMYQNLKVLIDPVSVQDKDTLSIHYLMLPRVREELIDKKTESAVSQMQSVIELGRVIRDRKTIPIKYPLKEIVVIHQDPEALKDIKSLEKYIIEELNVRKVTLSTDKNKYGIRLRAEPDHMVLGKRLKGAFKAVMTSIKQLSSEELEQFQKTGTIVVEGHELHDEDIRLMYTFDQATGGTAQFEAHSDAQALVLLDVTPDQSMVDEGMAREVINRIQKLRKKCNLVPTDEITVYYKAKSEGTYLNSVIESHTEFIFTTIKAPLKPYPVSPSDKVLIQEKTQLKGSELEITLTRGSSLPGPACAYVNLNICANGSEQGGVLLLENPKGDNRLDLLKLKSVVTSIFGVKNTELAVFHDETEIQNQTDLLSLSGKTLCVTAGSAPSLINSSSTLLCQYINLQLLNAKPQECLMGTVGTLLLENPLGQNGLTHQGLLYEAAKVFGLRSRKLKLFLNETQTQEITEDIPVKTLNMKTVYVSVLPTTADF

[2] = molecular target: T2, Isoleucine--tRNA ligase (Staphylococcus aureus, UniProt P41972); experiment: Compound tested for the inhibition of Staphylococcus aureus isoleucyl-tRNA synthetase
T2 sequence (P41972 whole entry): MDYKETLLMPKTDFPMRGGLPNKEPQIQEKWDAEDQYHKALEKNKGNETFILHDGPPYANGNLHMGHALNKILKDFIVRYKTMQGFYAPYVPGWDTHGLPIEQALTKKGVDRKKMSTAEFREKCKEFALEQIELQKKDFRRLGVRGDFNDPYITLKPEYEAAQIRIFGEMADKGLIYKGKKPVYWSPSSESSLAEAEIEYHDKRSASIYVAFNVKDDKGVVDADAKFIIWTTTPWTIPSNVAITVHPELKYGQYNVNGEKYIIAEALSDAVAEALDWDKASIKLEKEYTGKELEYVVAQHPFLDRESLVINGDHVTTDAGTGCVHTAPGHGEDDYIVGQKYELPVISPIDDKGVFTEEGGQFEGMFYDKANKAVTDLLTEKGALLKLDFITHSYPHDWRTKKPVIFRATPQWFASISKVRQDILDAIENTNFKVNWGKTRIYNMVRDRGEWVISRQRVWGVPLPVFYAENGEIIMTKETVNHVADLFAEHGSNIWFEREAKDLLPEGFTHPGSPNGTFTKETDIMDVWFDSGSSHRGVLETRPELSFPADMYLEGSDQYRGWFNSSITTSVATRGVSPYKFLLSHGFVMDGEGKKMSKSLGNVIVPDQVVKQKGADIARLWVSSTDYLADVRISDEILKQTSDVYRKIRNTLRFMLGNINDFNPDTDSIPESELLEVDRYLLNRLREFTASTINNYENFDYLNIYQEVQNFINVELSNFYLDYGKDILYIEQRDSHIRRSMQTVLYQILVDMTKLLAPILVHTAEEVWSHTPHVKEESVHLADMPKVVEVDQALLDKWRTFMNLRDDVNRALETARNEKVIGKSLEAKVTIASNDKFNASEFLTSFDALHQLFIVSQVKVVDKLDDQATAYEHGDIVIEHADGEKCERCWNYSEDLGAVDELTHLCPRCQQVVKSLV

[3] = Selectivity ratio of human to that of Escherichia coli was determined for isoleucyl-tRNA synthetase
[4] = Selectivity ratio of human to that of Escherichia coli was determined for leucyl-tRNA synthetase
[5] = molecular target: Leucine--tRNA ligase, cytoplasmic (Homo sapiens, UniProt Q9P2J5); experiment: Compound tested for the inhibition of human Leucyl-tRNA synthetase
Sequence of Leucine--tRNA ligase, cytoplasmic (Q9P2J5 whole entry): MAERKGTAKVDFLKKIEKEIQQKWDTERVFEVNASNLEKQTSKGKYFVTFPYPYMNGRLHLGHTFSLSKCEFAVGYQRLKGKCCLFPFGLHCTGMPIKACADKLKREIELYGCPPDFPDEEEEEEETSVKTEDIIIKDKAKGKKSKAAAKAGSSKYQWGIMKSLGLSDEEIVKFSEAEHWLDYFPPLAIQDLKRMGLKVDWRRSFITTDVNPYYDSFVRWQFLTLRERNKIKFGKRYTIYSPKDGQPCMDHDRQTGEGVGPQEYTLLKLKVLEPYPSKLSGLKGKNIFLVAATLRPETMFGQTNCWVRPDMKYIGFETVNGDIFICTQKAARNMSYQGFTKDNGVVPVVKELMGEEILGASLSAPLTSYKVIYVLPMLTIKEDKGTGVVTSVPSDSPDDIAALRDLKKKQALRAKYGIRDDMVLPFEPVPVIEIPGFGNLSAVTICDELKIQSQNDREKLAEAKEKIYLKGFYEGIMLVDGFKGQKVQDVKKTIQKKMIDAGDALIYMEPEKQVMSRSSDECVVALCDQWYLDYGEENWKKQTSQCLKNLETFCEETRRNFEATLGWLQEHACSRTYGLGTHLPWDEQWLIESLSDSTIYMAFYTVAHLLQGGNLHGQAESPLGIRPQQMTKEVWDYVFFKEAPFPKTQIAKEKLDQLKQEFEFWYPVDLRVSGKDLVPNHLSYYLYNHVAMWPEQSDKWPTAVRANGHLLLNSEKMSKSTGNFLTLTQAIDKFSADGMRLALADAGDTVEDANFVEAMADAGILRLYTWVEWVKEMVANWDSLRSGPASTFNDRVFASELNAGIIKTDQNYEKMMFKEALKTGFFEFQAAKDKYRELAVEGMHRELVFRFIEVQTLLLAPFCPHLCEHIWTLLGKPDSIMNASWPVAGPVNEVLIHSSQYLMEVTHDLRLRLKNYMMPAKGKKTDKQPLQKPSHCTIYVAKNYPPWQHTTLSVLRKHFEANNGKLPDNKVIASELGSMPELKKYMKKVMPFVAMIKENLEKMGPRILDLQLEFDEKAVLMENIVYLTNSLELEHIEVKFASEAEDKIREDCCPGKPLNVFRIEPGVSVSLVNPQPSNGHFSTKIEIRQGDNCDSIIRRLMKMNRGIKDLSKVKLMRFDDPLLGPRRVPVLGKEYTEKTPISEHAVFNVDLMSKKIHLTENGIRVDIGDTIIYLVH

[6] = molecular target: S. aureus MRSA LeuRS (Staphylococcus aureus, UniProt P67513); experiment: Compound tested for the inhibition of Staphylococcus aureus Leucyl-tRNA synthetase

IC50 [1] [nM]	IC50 [2] [nM]	Selectivity [3]	Selectivity [4]	IC50 [5] [nM]	IC50 [6] [nM]	Compound
1020	120	9.3				CCC(C)[C@H](N)C(=O)NS(=O)(=O)OC[C@H]1O[C@@H](c2nc(CCc3ccc(Oc4ccccc4)cc3)cs2)[C@H](O)[C@@H]1O (stereo not given in full)
34	50	2.3				CCC(C)[C@H](N)C(=O)NS(=O)(=O)OC[C@H]1O[C@@H](c2nc(-c3cccc(OC)c3)cs2)[C@H](O)[C@@H]1O (stereo not given in full)
			192	1150	100	CC(C)C[C@H](N)C(=O)NS(=O)(=O)OC[C@H]1O[C@@H](c2nc(CCc3ccc(Oc4ccccc4)cc3)cs2)[C@H](O)[C@@H]1O
120	240	1				CCC(C)[C@H](N)C(=O)NS(=O)(=O)OC[C@H]1O[C@@H](c2nc(-c3cc(C#N)co3)cs2)[C@H](O)[C@@H]1O (stereo not given in full)
200	100	2				CCC(C)[C@H](N)C(=O)NS(=O)(=O)OC[C@H]1O[C@@H](c2nc(-c3ccc(OC)cc3)cs2)[C@H](O)[C@@H]1O (stereo not given in full)
100	300	3.3				CCC(C)[C@H](N)C(=O)NS(=O)(=O)OC[C@H]1O[C@@H](c2nc(-c3ccccc3OC)cs2)[C@H](O)[C@@H]1O (stereo not given in full)
330	8000					CC[C@H](C)[C@H](N)C(=O)NS(=O)(=O)OC[C@H]1O[C@@H](c2nc(-c3ccccc3)cs2)[C@H](O)[C@@H]1O
			> 365	730	90	CC(C)C[C@H](N)C(=O)NS(=O)(=O)OC[C@H]1O[C@@H](c2nc(CCc3ccccc3)cs2)[C@H](O)[C@@H]1O
300	40	10				CCC(C)[C@H](N)C(=O)NS(=O)(=O)OC[C@H]1O[C@@H](c2nc(CCc3ccccc3)cs2)[C@H](O)[C@@H]1O (stereo not given in full)
370	270	8.2				CCC(C)[C@H](N)C(=O)NS(=O)(=O)OC[C@H]1O[C@@H](c2nc(-c3ccc(Oc4ccccc4)cc3)cs2)[C@H](O)[C@@H]1O (stereo not given in full)
			375	600	> 54	CC(C)C[C@H](N)C(=O)NS(=O)(=O)OC[C@H]1O[C@@H](c2nc(-c3ccc(Oc4ccccc4)cc3)cs2)[C@H](O)[C@@H]1O

Compound	IC50 [1] [nM]	IC50 [2] [nM]	Selectivity [3]	Selectivity [4]	IC50 [5] [nM]	IC50 [6] [nM]
CCC(C)[C@H](N)C(=O)NS(=O)(=O)OC[C@H]1O[C@@H](c2nc(-c3ccc4cc(OC)ccc4c3)cs2)[C@H](O)[C@@H]1O (stereo not given in full)	400	130	4			
